Experimental data published in patent publication US20150112057A1, “NOVEL CRYSTALLINE CEFOPERAZONE INTERMEDIATE” (DSM Sinochem Pharmaceuticals Netherlands B.V., priority 2011, published 2015).

Legend:
[1] = molecular target: T1, immobilized penicillin G acylase mutant 1 (Escherichia coli, UniProt P06875, F313A/F749L/S29L/V218E/V437L); experiment: Enzymatic hydrolysis of HPGM to HPG; format: biochemical; settings: water pH 8.7, 2° C., immobilized penicillin G acylase mutant 1 (5 g)
T1 construct: mutations V11A, A:S3L, A:V192E, B:F24A, B:V148L and B:F460L; made in house
From the text: The production, isolation and purification of wild type and mutant penicillin G acylases may be carried out as described in WO 1996/005318 and WO 2003/055998. Alternatively, genes encoding mutant penicillin G acylases may be obtained by gene synthesis. Production of the mutant penicillin G acylase was achieved by cloning the genes encoding mutant penicillin G acylases into an appropriate expression vector, transforming a suitable host such as Escherichia coli with said vector and culturing the transformed host under conditions suitable for the production of the mutant penicillin G acylases and recovery and purification of the mutants was carried out as described in WO 2010/072765. […]
(§1) The reactions were followed by quantitative HPLC analysis. The retention factors of 7-TMCA, HPGM, HPG and 5-mercapto-1-methyltetrazole were calculated using standards; the retention factor of D-7-(4-hydroxyphenylacetamido)-3-(1-methyl-1H-tetrazol-5-yl)thiomethylcephem-4-carboxylic acid was deducted based on mass balance in the first experiments and subsequently calculated using standard; the retention factor of cefatrizine was deducted on mass balance.
During the enzymatic condensation of 7-TMCA and HPGM the latter compound was hydrolyzed to HPG. […] In one of the reactors immobilized penicillin G acylase mutant 1 (5 g) was added and the two reactions were monitored by analytical HPLC.

[2] = Chemical hydrolysis of HPGM to HPG (chemical blank, no enzyme); format: physicochemical; settings: water pH 8.7, 2° C.
Description: as §1
During the enzymatic condensation of 7-TMCA and HPGM the latter compound was hydrolyzed to HPG. […] Two reactions were started in parallel at 2° C. […] In one of the reactors immobilized penicillin G acylase mutant 1 (5 g) was added and the two reactions were monitored by analytical HPLC.

[3] = Chemical degradation of 7-TMCA to 5-mercapto-1-methyltetrazole during dissolution and enzymatic condensation; format: physicochemical; settings: during the dissolution step, titration with aqueous NaOH 5M
Description: as §1
7-Amino-3-(1-methyl-1H-tetrazol-5-ylthiomethyl)-3-cephem-4-carboxylic acid (7-TMCA; 5 g) was added to distilled water (38 g) and cooled to 3° C. The mixture was stirred at 400 rpm and the pH was brought to 9.0 with aqueous NaOH (5M) whereafter the remainder of the reaction was carried out at pH 8.8. After 60-80 min, the suspension was filtered. The filtrate, containing 4.1 g of 7-TMCA, was place back in the reactor and immobilized penicillin G acylase mutant 1 (3.5 g, see Materials and Methods) was added and to the resulting mixture a solution of D-4-hydroxyphenylglycine methylester (HPGM) was dropped at speed of 7 mL/h by a syringe pump (dosing time 2 h). This solution was prepared by dissolving HPGM (4.0 g, 1.7 equiv.) in water (6.4 g) and H2SO4 25% (4.25 g in water). The enzymatic reaction was followed by analytical HPLC (see Materials and Methods) and stopped at the end of HPGM addition, by enzyme filtration. […]

COC(=O)[C@H](N)c1ccc(O)cc1 [HPGM, D-4-hydroxyphenylglycine methylester]
time to complete conversion of HPGM to HPG by the enzyme [1]: ≤ 5 min
HPGM hydrolyzed in the chemical blank ([2]; 20 h): 9%
formation of HPG from HPGM in the chemical blank ([2]; within 2 h): no HPG was recorded

Cn1nnnc1SCC1=C(C(=O)O)N2C(=O)[C@@H](N)[C@H]2SC1 [Example 7-TMCA, 7-amino-3-(1-methyl-1H-tetrazol-5-ylthiomethyl)-3-cephem-4-carboxylic acid]
amount of 5-mercapto-1-methyltetrazole (degradation product of 7-TMCA) [3]: not detectable
